Source: publication PMC9963013 (Proceedings of the National Academy of Sciences of the …, 2023)

Target: AtSFH5-Sec14 (Arabidopsis thaliana, UniProt Q8GXC6)
Assay: X-ray crystal structure, […] Å
Assay type: binding
Conditions: central cavity; acyl chains switched relative to L-α-PA complex

Sequence of AtSFH5-Sec14 (Q8GXC6 76-365): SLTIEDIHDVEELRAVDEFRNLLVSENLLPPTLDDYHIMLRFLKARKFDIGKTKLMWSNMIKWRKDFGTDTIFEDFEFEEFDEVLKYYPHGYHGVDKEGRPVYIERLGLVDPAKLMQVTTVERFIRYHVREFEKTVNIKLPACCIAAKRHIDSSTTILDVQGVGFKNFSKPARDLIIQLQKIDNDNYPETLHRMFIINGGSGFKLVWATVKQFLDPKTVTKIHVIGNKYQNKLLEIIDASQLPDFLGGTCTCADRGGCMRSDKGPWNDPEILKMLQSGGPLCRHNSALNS

## CCCCCCCCCCCCCCCC(=O)OC[C@H](COP(=O)(O)O)OC(=O)CCCCCCCCCCCCCCC [DPPA, 1,2-dipalmitoyl-sn-glycero-3-phosphate]
  X-ray crystal structure, 2.1 Å: 7Y10 for AtSFH5-Sec14 in complex with DPPA
